Assay results reported in patent US9969698B2, “Quinoxalinyl-piperazinamide methods of use” (REXAHN PHARMACEUTICALS, INC., priority 2015, dated 2018).
Like-named read-outs stand apart in the source and are kept apart here.

Assay: Human pharmacokinetics, dose-ranging study
Assay type: in vivo
Conditions: for AUC(0-t) / Cmax / half-life / Tmax: human, plasma, po, oral capsule, fasted; for Cmax: read-out: Cmax; for half-life: read-out: T1/2 (converted); for Tmax: read-out: Tmax
Description: In a dose-ranging study, the pharmacokinetics (PK), safety and tolerability of RX-5902 at various oral doses were evaluated. Subjects with advanced or metastatic solid tumors were administered capsules containing RX-5902 at daily doses of 25-775 mg once weekly, 250-300 mg three times a week, 150-300 mg five times a week, or 300-350 mg seven times a week of RX-5902 for up to 6 dosing cycles. Each cycle consisting of 1-5 doses of RX-5902 per week for 3 weeks followed by 1 week of rest, or 5-7 doses of RX-5902 per week for 4 weeks without any rest per 4-week cycle. All but one subject had fasted from food for at least 8 hours before administration. One subject received 300 mg RX-5902 in fed state. Plasma concentrations were measured on Days 1 and 15, for 48 hrs, using a validated LC-MS/MS assay, and noncompartmental pharmacokinetic parameters were calculated using Phoenix WinNonlin, Version 6.4.
Preliminary PK data after a single administration is presented in FIG. 1 (for Subjects #1-11) and Table 3.

[1] = 25 mg, 25 mg, 1 per week, Day 1
[2] = 50 mg, 50 mg, 1 per week, Day 1
[3] = 100 mg, 100 mg, 1 per week, Day 1
[4] = 150 mg, 150 mg, 1 per week, Day 1
[5] = 150 mg, 150 mg, 5 per week, Day 1
[6] = 150 mg, 150 mg, 5 per week, Day 15
[7] = 200 mg, 200 mg, 5 per week, Day 1
[8] = 200 mg, 200 mg, 5 per week, Day 15
[9] = 225 mg, 225 mg, 1 per week, Day 1
[10] = 250 mg, 250 mg, 3 per week, Day 1
[11] = 250 mg, 250 mg, 3 per week, Day 15
[12] = 300 mg, 300 mg, 1 per week, Day 1

## COc1cc(OC)cc(N2CCN(C(=O)Nc3nc4cc(F)ccc4nc3OC)CC2)c1 [RX-5902, 4-(3,5-dimethoxyphenyl)-N-(7-fluoro-3-methoxyquinoxalin-2-yl)piperazine-1-carboxamide]
300 mg oral, one fed subject
  exposure in fed state compared to fasted state: significantly higher exposure
25 mg, 25 mg, 1 per week, Day 1, read-out: AUC0-24
  AUC(0-t): 830 ng·h/mL
25 mg, 25 mg, 1 per week, Day 1, read-out: AUC0-48
  AUC(0-t): 894 ng·h/mL
[1]
  Cmax: 99.1 ng/mL
  half-life: 5.8 h
  Tmax: 6 h
50 mg, 50 mg, 1 per week, Day 1, read-out: AUC0-24
  AUC(0-t): 1030 ng·h/mL
50 mg, 50 mg, 1 per week, Day 1, read-out: AUC0-48
  AUC(0-t): 1310 ng·h/mL
[2]
  Cmax: 109 ng/mL
  half-life: 13.2 h
  Tmax: 1.5 h
100 mg, 100 mg, 1 per week, Day 1, read-out: AUC0-24
  AUC(0-t): 1780 ng·h/mL
100 mg, 100 mg, 1 per week, Day 1, read-out: AUC0-48
  AUC(0-t): 2340 ng·h/mL
[3]
  Cmax: 252 ng/mL
  half-life: 27.6 h
  Tmax: 2 h
150 mg, 150 mg, 1 per week, Day 1, read-out: AUC0-24
  AUC(0-t): 2690 ng·h/mL
150 mg, 150 mg, 1 per week, Day 1, read-out: AUC0-48
  AUC(0-t): 3280 ng·h/mL
[4]
  Cmax: 226 ng/mL
  half-life: 11.5 h
  Tmax: 6 h
150 mg, 150 mg, 5 per week, Day 1, read-out: AUC0-24
  AUC(0-t): 2150 ng·h/mL
[5]
  Cmax: 227 ng/mL
  Tmax: 2 h
150 mg, 150 mg, 5 per week, Day 15, read-out: AUC0-24
  AUC(0-t): 3720 ng·h/mL
[6]
  Cmax: 347 ng/mL
  Tmax: 1 h
200 mg, 200 mg, 5 per week, Day 1, read-out: AUC0-24
  AUC(0-t): 2750 ng·h/mL
[7]
  Cmax: 337 ng/mL
  half-life: 8.5 h
  Tmax: 4 h
200 mg, 200 mg, 5 per week, Day 15, read-out: AUC0-24
  AUC(0-t): 4030 ng·h/mL
[8]
  Cmax: 440 ng/mL
  Tmax: 2 h
225 mg, 225 mg, 1 per week, Day 1, read-out: AUC0-24
  AUC(0-t): 3420 ng·h/mL
225 mg, 225 mg, 1 per week, Day 1, read-out: AUC0-48
  AUC(0-t): 4310 ng·h/mL
[9]
  Cmax: 364 ng/mL
  half-life: 12 h
  Tmax: 4 h
250 mg, 250 mg, 3 per week, Day 1, read-out: AUC0-24
  AUC(0-t): 3980 ng·h/mL
250 mg, 250 mg, 3 per week, Day 1, read-out: AUC0-48
  AUC(0-t): 5210 ng·h/mL
[10]
  Cmax: 394 ng/mL
  half-life: 14 h
  Tmax: 2 h
250 mg, 250 mg, 3 per week, Day 15, read-out: AUC0-24
  AUC(0-t): 4810 ng·h/mL
250 mg, 250 mg, 3 per week, Day 15, read-out: AUC0-48
  AUC(0-t): 7770 ng·h/mL
[11]
  Cmax: 403 ng/mL
  Tmax: 2 h
300 mg, 300 mg, 1 per week, Day 1, read-out: AUC0-24
  AUC(0-t): 4680 ng·h/mL
300 mg, 300 mg, 1 per week, Day 1, read-out: AUC0-48
  AUC(0-t): 6140 ng·h/mL
[12]
  Cmax: 318 ng/mL
  half-life: 14.6 h
